# Measurements published in EP0281242B1, “Beta-alkylmelatonins” (ELI LILLY AND COMPANY, priority 1987, dated 1988).
# Columns and labels:
# [1] = test system: Adult female rats; assay: Ovulation inhibition in adult female rats (ova in the oviduct on the day of estrus); type: in vivo; conditions: Rattus norvegicus, po; administered orally at noon on the day of proestrus; dose giving a 50% decrease in the number of ovulating non-control rats relative to control rats; read-out: Minimum effective inhibitory dose in mg per kilogram of rat weight
# Description: The degree of ovulation inhibitory activity was determined according to the following protocol.
# Adult female rats with regular estrus cycles of four days each are employed. The estrus cycle consists of 2 days of diestrus followed by a day of proestrus and then a day of estrus. […] On the afternoon of proestrus, luteinizing hormone (LH) is released into the blood by the pituitary gland. The LH travels to the ovary where it induces ovulation, resulting in the presence of eggs in the oviduct on the day of estrus.
# The test compound is administered orally to the non-control rats at noon on the day of proestrus. Both control and non-control rats are sacrificed on the following day (estrus). The oviduct is removed from each rat and examined microscopically for the presence of ova.
# Melatonin is included in Table I for comparative purposes.
# [2] = test system: ovulation; conditions: compared to melatonin; cited from earlier work
# [3] = test system: rats and mice; conditions: cited from earlier work
Compound,minimal effective dose [1],ovulation blocking activity [2],inhibition of the estrous phase of the estrous cycle and of ovulation [3]
COc1cc2c([C@@H](C)CNC(C)=O)c[nH]c2cc1Cl [R-(+)-β-methyl-6-chloromelatonin],1 mg/kg,–,–
"COc1cc2c(C(C)CNC(C)=O)c[nH]c2c(Cl)c1Cl (racemic) [β-Methyl-6,7-dichloro-melatonin, β-methyl-6,7-dichloromelatonin]",15 mg/kg,–,–
"COc1ccc2[nH]cc(C(C)CNC(C)=O)c2c1 (racemic) [β-methyl melatonin, β-Methylmelatonin]",1 mg/kg,–,–
COc1cc2c([C@H](C)CNC(C)=O)c[nH]c2cc1Cl [S-(-)-β-methyl-6-chloromelatonin],> 5 mg/kg,–,–
"COc1cc2c(C(C)CNC(C)=O)c[nH]c2cc1Cl (racemic) [β-methyl-6-chloro-melatonin, β-Methyl-6-chloromelatonin]",2 mg/kg,–,–
COc1cc2c(CC(C)NC(C)=O)c[nH]c2cc1Cl (stereo not drawn) [α-Methyl-6-chloromelatonin],–,no increased ovulation-blocking activity,–
"COc1ccc2[nH]cc([C@@H](C)CNC(C)=O)c2c1 [R-(+)-β-methyl melatonin, R-(+)-β-Methylmelatonin]",1 mg/kg,–,–
COc1cc2c(CCNC(C)=O)c[nH]c2cc1Cl [6-chloromelatonin],–,increased ovulation blocking activity,–
"COc1ccc2[nH]cc(CCNC(C)=O)c2c1 [Melatonin, N-[2-(5-methoxy-3-indolyl)ethyl]acetamide]",32 mg/kg,–,inhibited both the estrous phase of the estrous cycle and ovulation
COc1cc2c(CCNC(C)=O)c[nH]c2cc1F [6-fluoromelatonin],–,increased ovulation blocking activity,–
"CCC(CNC(C)=O)c1c[nH]c2ccc(OC)cc12 (racemic) [β-ethyl melatonin, β-Ethylmelatonin]",1 mg/kg,–,–
